Laboratory results as given in patent publication US20220275534A1, “Peptide Library Production Method” (The University of Tokyo, priority 2018, published 2022).
Positions of bridges follow the written chain, without caps; N, C: chain ends. Non-standard residues stand in square brackets, D forms with d. No end group written: not given here. *: point of attachment. prenyl = prenyl group added to Trp by KgpF, CC(C)=CC*

Legend:
KgpF = experiment: Prenylation of artificial cyclic peptides with 160 μM KgpF at 0° C., 20 hours (Conditions 13/14 and 19/20; Examples 10, 14, 19; Tables 6 and 18); type: biochemical, Microcystis aeruginosa; design: key: 5: strong intensity; 4: medium intensity; 3: weak intensity; 2: very weak intensity; 1: no peak; N/A: not observed; settings: for MALDI-TOF-MS peak intensity, Number of additions 1 / MALDI-TOF-MS peak intensity, Number of additions 2 / MALDI-TOF-MS peak intensity, Number of additions 0 / MALDI-TOF-MS peak intensity, Number of additions 3: Table 6, 160 μM KgpF, 2 mM DMAPP, 0° C., 20 hours; for MALDI-TOF-MS peak intensity, Number of additions 1: 1 prenyl added; for MALDI-TOF-MS peak intensity, Number of additions 2: 2 prenyl added; for MALDI-TOF-MS peak intensity, Number of additions 0: unmodified peptide peak; for MALDI-TOF-MS peak intensity, Number of additions 3: 3 prenyl added
Chain of KgpF (as listed by the source): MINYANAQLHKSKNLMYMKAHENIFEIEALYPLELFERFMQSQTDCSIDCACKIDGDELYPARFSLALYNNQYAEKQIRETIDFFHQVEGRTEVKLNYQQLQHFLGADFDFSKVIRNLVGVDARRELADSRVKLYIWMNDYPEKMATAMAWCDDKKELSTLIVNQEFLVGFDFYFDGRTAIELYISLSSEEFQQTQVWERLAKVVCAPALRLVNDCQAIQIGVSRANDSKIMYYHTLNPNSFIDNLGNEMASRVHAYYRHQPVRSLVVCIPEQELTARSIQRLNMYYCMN
Procedure: The artificial cyclic peptides Clone-M1 to M9 shown below were obtained by translation and synthesis in the artificial translation system (Conditions 13) developed by the present inventors. The peptides thus obtained were then reacted with 160 μM KgpF in the system shown in (Conditions 14) at 0° C. for 20 hours.
(Conditions 13) • FIT system: v8s/v11.0 • 19aa-Met: 0.5 mM • ClAc-D-Tyr-tRNA^fMetCUA: 90 μM • Reaction: 37° C., 60 min. • Scale: 2.5 μL scale
After the above reaction was performed, the reaction product was incubated at 25° C. for 12 minutes.
Then, a cyclization reaction was performed under the following conditions. • Translated mixture amount: 2.5 μL (mixture obtained by the above reaction) • EDTA: 18 mM • Reaction: 42° C., 60 min. • Scale: 2.75 μL scale
(Conditions 14) • Translated mixture amount: 2.75 μL (mixture obtained under (Conditions 13)) • KOH: 6.0 mM • Mg(OAc)2: 9.0 mM • Tris-HCl (pH 8.3) 15 mM • KgpF: 160 μM • DMAPP: 2 mM • Reaction: 0° C., 20 hours
The artificial cyclic peptides shown below were obtained by translation and synthesis in the artificial translation system (Conditions 19) developed by the present inventors. The peptides thus obtained were then reacted with 160 μM KgpF in the system shown in (Conditions 20) at 0° C. for 20 hours.
(Conditions 19) • FIT system: v8s/11.0 • 19aa-Met: 0.5 mM • ClAc-D-Tyr-tRNA^fMetCUA: 90 μM • Reaction: 37° C., 60 min. • Scale: 2.5 μL scale
(Conditions 20) • Translated mixture amount: 2.75 μL (mixture obtained under (Conditions 19)) • KOH: 6.0 mM • Mg(OAc)2: 9.0 mM • Tris-HCl (pH 8.3): 15 mM • KgpF: 160 μM • DMAPP: 2 mM • Reaction: 0° C., 20 hours
Then, the compound library was provided for a step of screening cyclic peptides having interaction with an enzyme MetAP1 (Human) as in the scheme shown in FIG. 8. It has been confirmed that with regards to some of the peptides shown in FIG. 10, peptides having these sequences are modified by prenylation as shown in Table 18 by bringing them into contact with KgpF under conditions shown in (Conditions 13) and (Conditions 14).

OltF v 2.1 = experiment: Modification test of thioether-closed artificial cyclic peptides with 9.13 μM OltF v 2.1 (Example 16; Tables 11 and 12); type: biochemical, Planktothrix; design: key: 5: strong intensity; 4: medium intensity; 3: weak intensity; 2: very weak intensity; 1: no peak; N/A: not observed; settings: OltF v 2.1 9.13 μM, DMAPP 2 mM, 37° C., 18 hours
Chain of OltF v 2.1 (as listed by the source): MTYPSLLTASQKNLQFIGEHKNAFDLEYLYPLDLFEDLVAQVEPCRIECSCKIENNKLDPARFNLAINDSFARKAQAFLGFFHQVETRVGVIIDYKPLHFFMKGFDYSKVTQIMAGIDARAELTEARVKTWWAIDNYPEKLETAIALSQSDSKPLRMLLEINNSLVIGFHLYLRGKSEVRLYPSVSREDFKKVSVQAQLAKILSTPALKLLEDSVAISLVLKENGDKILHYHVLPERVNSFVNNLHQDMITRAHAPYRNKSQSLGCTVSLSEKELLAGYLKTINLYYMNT
Procedure: The artificial cyclic peptides shown in Table 11 and Table 12 were obtained by translation and synthesis in the artificial translation system (Conditions 23) developed by the present inventors. The peptides thus obtained were then reacted with 9.13 μM OltF in the system shown in (Conditions 24) at 37° C. for 18 hours. It is to be noted that OltF v 2.1 is an enzyme prepared from OltF used in (Conditions 22) while changing a purification manner.
(Conditions 23) • FIT system: v8s/v11.1 • 19aa-Met: 0.5 mM • ClAc-D or L-Tyr-tRNA^fMetCUA: 90 μM • Reaction: 37° C., 60 min. • Scale: 2.5 μL scale
(Conditions 24) • Translated mixture amount: 2.5 μL (mixture obtained under (Conditions 23)) • OltF v 2.1: 9.13 μM • DMAPP: 2 mM • Reaction: 37° C., 18 hours

[1] = Table 18, Conditions 13 and 14 (160 μM KgpF, 0° C., 20 hours), NSGGVS added to C terminal

Substance | MALDI-TOF-MS peak intensity, Number of additions 1 (KgpF) | MALDI-TOF-MS peak intensity, Number of additions 2 (KgpF) | MALDI-TOF-MS peak intensity, Number of additions 0 (KgpF) | Peak intensity, The number of prenyl groups added 0 (OltF v 2.1; Table 12) | Peak intensity, The number of prenyl groups added 1 (OltF v 2.1; Table 12) | further results
Clone-M1: artificial cyclic peptide containing a plurality of Trps ([dY]LRLNHTWSTWTSC; thioether (positions not given here); not fully specified (N-terminus, bridges); also: cyclic) | 1 | 5 | 1 | – | – | –
Clone-M2: artificial cyclic peptide containing a plurality of Trps (Ac-[dY]SAWHGKDNYDWFC; thioether (positions not given here); not fully specified (bridges)) | 5 | 1 | 1 | – | – | –
Clone-M3: artificial cyclic peptide containing a plurality of Trps (Ac-[dY]SWSPAWVRQADIC; thioether (positions not given here); not fully specified (bridges)) | 1 | 4 | 1 | – | – | –
Clone-M4: artificial cyclic peptide containing a plurality of Trps (Ac-[dY]RVSNTWWQRHRWC; thioether (positions not given here); not fully specified (bridges)) | 4 | 1 | 1 | – | – | MALDI-TOF-MS peak intensity, Number of additions 3 (KgpF): 1
Clone-M5: artificial cyclic peptide containing a plurality of Trps (Ac-[dY]LWSKNSQPWPESC; thioether (positions not given here); not fully specified (bridges)) | 5 | 1 | 3 | – | – | –
Clone-M6: artificial cyclic peptide containing a plurality of Trps (Ac-[dY]ILSQENHVWSLWC; thioether (positions not given here); not fully specified (bridges)) | 5 | 5 | 1 | – | – | –
Clone-M7: artificial cyclic peptide containing a plurality of Trps (Ac-[dY]LWVLRSDNTPWVC; thioether (positions not given here); not fully specified (bridges)) | 4 | 5 | 1 | – | – | –
Clone-M8: artificial cyclic peptide containing a plurality of Trps (Ac-[dY]THEWPWRTGWTRC; thioether (positions not given here); not fully specified (bridges)) | 1 | 5 | 1 | – | – | MALDI-TOF-MS peak intensity, Number of additions 3 (KgpF): 1
Clone-M9: artificial cyclic peptide containing a plurality of Trps (Ac-[dY]SFHWGLAVWDHNC; thioether (positions not given here); not fully specified (bridges)) | 1 | 5 | 1 | – | – | –
DNT034 (Ac-[dY]NNRERGSDYFWLPPC; thioether (positions not given here); not fully specified (bridges)) | – | – | – | 1 | 5 | –
DNT057 (Ac-[dY]RQFNRRTHYFWLPDC; thioether (positions not given here); not fully specified (bridges)) | – | – | – | 1 | 5 | –
DNT061 (Ac-[dY]NNRERGSDFFWFFPC; thioether (positions not given here); not fully specified (bridges)) | – | – | – | 2 | 5 | –
DNT062 (Ac-[dY]NNRERGSDGGWGGPC; thioether (positions not given here); not fully specified (bridges)) | – | – | – | 3 | 5 | –
DNT063 (Ac-[dY]NNRERGSDYYWYYPC; thioether (positions not given here); not fully specified (bridges)) | – | – | – | 2 | 5 | –
DNT065 (Ac-[dY]NNRERGSDNNWNNPC; thioether (positions not given here); not fully specified (bridges)) | – | – | – | 3 | 5 | –
DNT066 (Ac-[dY]NNRERGSDVVWVVPC; thioether (positions not given here); not fully specified (bridges)) | – | – | – | 4 | 5 | –
DNT070 ({CH2CO}-[dY]ISWNEFNSYFWLPITC; thioether N-17 (inferred); not fully specified) | – | – | – | 1 | 5 | Peak intensity, The number of prenyl groups added 2 (OltF v 2.1; Table 12): 1
Met9: prenylated cyclic peptide identified by screening with MetAP1 as a target (Ac-[dY]KRKNCLVHVW(prenyl)HQCNSGGVS; thioether (positions not given here); not fully specified (C-terminus)) | – | – | – | – | – | Peak intensity, The number of prenyl groups added 0 (KgpF; [1]): 1; Peak intensity, The number of prenyl groups added 1 (KgpF; [1]): 5
Met11: cyclic peptide SEQ ID NO: 363 identified by screening with MetAP1 as a target ({CH2CO}-[dY]HTDPFKAWHRRSCNSG; thioether N-14 (inferred); not fully specified) | – | – | – | – | – | Peak intensity, The number of prenyl groups added 0 (KgpF; [1]): 1; Peak intensity, The number of prenyl groups added 1 (KgpF; [1]): 5
Met12: prenylated cyclic peptide identified by screening with MetAP1 as a target ({CH2CO}-[dY]YIIW(prenyl)HRHRIMTVCNSGGVS; thioether N-14 (inferred); not fully specified (C-terminus); also: C-terminus linked to its mRNA (mRNA display)) | – | – | – | – | – | Peak intensity, The number of prenyl groups added 0 (KgpF; [1]): 3; Peak intensity, The number of prenyl groups added 1 (KgpF; [1]): 4
Met13: cyclic peptide SEQ ID NO: 364 identified by screening with MetAP1 as a target ({CH2CO}-[dY]VTWKGPYRWRVCNSG; thioether N-13 (inferred); not fully specified) | – | – | – | – | – | Peak intensity, The number of prenyl groups added 0 (KgpF; [1]): 1; Peak intensity, The number of prenyl groups added 1 (KgpF; [1]): 5; Peak intensity, The number of prenyl groups added 2 (KgpF; [1]): 1
YG288 ({CH2CO}-[dY]SNFRIWRYSNSSC; thioether N-14 (inferred)) | – | – | – | – | – | Peak intensity, The number of prenyl groups added 0 (OltF v 2.1; Table 11): 1; Peak intensity, The number of prenyl groups added 1 (OltF v 2.1; Table 11): 5
YG289 ({CH2CO}-[dY]HDYRIWRYHTYPC; thioether N-14 (inferred)) | – | – | – | – | – | Peak intensity, The number of prenyl groups added 0 (OltF v 2.1; Table 11): 1; Peak intensity, The number of prenyl groups added 1 (OltF v 2.1; Table 11): 5
